Source: the NIST ThermoML archive (doi:10.1021/acs.jced.6b00121)

Assay: xn = mol fraction of the nth substance listed
Settings: 100 kPa, Liquid; for viscosity: Falling or rolling sphere viscometry; for mass density: Vibrating tube method

CCCCCCCCCCC [undecane] + CCCCCO
Settings | mass density [kg/m3] | viscosity [mPa·s]
283.15 K, x1 = 0.0999 | 808.13 | 4.269
283.15 K, x1 = 0.2 | 796.68 | 3.406
283.15 K, x1 = 0.3026 | 786.76 | 2.731
283.15 K, x1 = 0.4001 | 778.65 | 2.21
283.15 K, x1 = 0.5022 | 771.41 | 1.884
283.15 K, x1 = 0.5976 | 765.49 | 1.694
283.15 K, x1 = 0.6984 | 760.02 | 1.551
283.15 K, x1 = 0.801 | 755.27 | 1.452
283.15 K, x1 = 0.8822 | 751.87 | 1.413
283.15 K, x1 = 1 | 747.78 | 1.371
288.15 K, x1 = 0.0999 | 804.49 | 3.679
288.15 K, x1 = 0.2 | 792.98 | 2.958
288.15 K, x1 = 0.3026 | 783.04 | 2.39
288.15 K, x1 = 0.4001 | 774.92 | 1.945
288.15 K, x1 = 0.5022 | 767.66 | 1.689
288.15 K, x1 = 0.5976 | 761.74 | 1.535
288.15 K, x1 = 0.6984 | 756.3 | 1.419
288.15 K, x1 = 0.801 | 751.55 | 1.335
288.15 K, x1 = 0.8822 | 748.15 | 1.287
288.15 K, x1 = 1 | 744.06 | 1.249
293.15 K, x1 = 0.0999 | 800.81 | 3.187
293.15 K, x1 = 0.2 | 789.27 | 2.58
293.15 K, x1 = 0.3026 | 779.3 | 2.103
293.15 K, x1 = 0.4001 | 771.17 | 1.743
293.15 K, x1 = 0.5022 | 763.91 | 1.529
293.15 K, x1 = 0.5976 | 757.99 | 1.404
293.15 K, x1 = 0.6984 | 752.55 | 1.308
293.15 K, x1 = 0.801 | 747.81 | 1.236
293.15 K, x1 = 0.8822 | 744.41 | 1.176
293.15 K, x1 = 1 | 740.35 | 1.145
298.15 K, x1 = 0.0999 | 797.12 | 2.777
298.15 K, x1 = 0.2 | 785.54 | 2.26
298.15 K, x1 = 0.3026 | 775.54 | 1.862
298.15 K, x1 = 0.4001 | 767.4 | 1.571
298.15 K, x1 = 0.5022 | 760.13 | 1.395
298.15 K, x1 = 0.5976 | 754.22 | 1.295
298.15 K, x1 = 0.6984 | 748.78 | 1.214
298.15 K, x1 = 0.801 | 744.05 | 1.153
298.15 K, x1 = 0.8822 | 740.67 | 1.08
298.15 K, x1 = 1 | 736.64 | 1.062
303.15 K, x1 = 0.0999 | 793.4 | 2.428
303.15 K, x1 = 0.2 | 781.78 | 1.995
303.15 K, x1 = 0.3026 | 771.75 | 1.656
303.15 K, x1 = 0.4001 | 763.6 | 1.428
303.15 K, x1 = 0.5022 | 756.32 | 1.283
303.15 K, x1 = 0.5976 | 750.42 | 1.202
303.15 K, x1 = 0.6984 | 745 | 1.095
303.15 K, x1 = 0.801 | 740.28 | 1.026
303.15 K, x1 = 0.8822 | 736.92 | 0.999
303.15 K, x1 = 1 | 732.93 | 0.982
308.15 K, x1 = 0.0999 | 789.65 | 2.136
308.15 K, x1 = 0.2 | 777.98 | 1.768
308.15 K, x1 = 0.3026 | 767.93 | 1.481
308.15 K, x1 = 0.4001 | 759.77 | 1.29
308.15 K, x1 = 0.5022 | 752.5 | 1.153
308.15 K, x1 = 0.5976 | 746.6 | 1.062
308.15 K, x1 = 0.6984 | 741.2 | 0.998
308.15 K, x1 = 0.801 | 736.49 | 0.951
308.15 K, x1 = 0.8822 | 733.14 | 0.922
308.15 K, x1 = 1 | 729.23 | 0.91
313.15 K, x1 = 0.0999 | 785.86 | 1.887
313.15 K, x1 = 0.2 | 774.15 | 1.572
313.15 K, x1 = 0.3026 | 764.08 | 1.33
313.15 K, x1 = 0.4001 | 755.91 | 1.17
313.15 K, x1 = 0.5022 | 748.64 | 1.058
313.15 K, x1 = 0.5976 | 742.76 | 0.976
313.15 K, x1 = 0.6984 | 737.36 | 0.924
313.15 K, x1 = 0.801 | 732.67 | 0.881
313.15 K, x1 = 0.8822 | 729.34 | 0.859
313.15 K, x1 = 1 | 725.53 | 0.847
318.15 K, x1 = 0.0999 | 782.03 | 1.675
318.15 K, x1 = 0.2 | 770.28 | 1.409
318.15 K, x1 = 0.3026 | 760.19 | 1.2
318.15 K, x1 = 0.4001 | 752.02 | 1.065
318.15 K, x1 = 0.5022 | 744.75 | 0.972
318.15 K, x1 = 0.5976 | 738.88 | 0.902
318.15 K, x1 = 0.6984 | 733.51 | 0.856
318.15 K, x1 = 0.801 | 728.83 | 0.819
318.15 K, x1 = 0.8822 | 725.53 | 0.801
318.15 K, x1 = 1 | 721.82 | 0.79
323.15 K, x1 = 0.0999 | – | 1.468
323.15 K, x1 = 0.2 | – | 1.266
323.15 K, x1 = 0.3026 | – | 1.087
323.15 K, x1 = 0.4001 | – | 0.974
323.15 K, x1 = 0.5022 | – | 0.896
323.15 K, x1 = 0.5976 | – | 0.836
323.15 K, x1 = 0.6984 | – | 0.796
323.15 K, x1 = 0.801 | – | 0.764
323.15 K, x1 = 0.8822 | – | 0.748
323.15 K, x1 = 1 | – | 0.74
